Test results as given in PubChem BioAssay (NCI).
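Each compound was tested at five concentrations against cells in 96-well plates for 48 hours. TGI: concentration producing complete growth inhibition.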

Key:
Assay in all cases: inhibition of tumour cell growth, NCI panel, 48 h
[1] = tested on: DMS 114 small cell lung
[2] = tested on: LXFL 529 NSCLC
[3] = tested on: XF 498 CNS
[4] = tested on: SNB-78 CNS
[5] = tested on: M19-MEL melanoma
[6] = tested on: DLD-1 colon
[7] = tested on: KM20L2 colon
[8] = tested on: HOP-18 NSCLC
[9] = tested on: DMS 273 small cell lung
[10] = tested on: RXF-631 renal

SMILES	TGI [1] [µM]	TGI [2] [µM]	TGI [3] [µM]	TGI [4] [µM]	TGI [5] [µM]	TGI [6] [µM]	TGI [7] [µM]	TGI [8] [µM]	TGI [9] [µM]	TGI [10] [µM]
CC[C@]12C=CCN3CCC4(c5cc([C@@]6(C(=O)OC)CC7CN(CCc8c6[nH]c6ccccc86)C[C@@H]6CCCC[C@H]76)c(OC)cc5N(C)C4[C@](O)(C(=O)OC)C1OC(C)=O)[C@@H]32 (some centres undefined)	< 0.01	1.71	3.79	19.9	16.3	13.8				
c1cc2nnsc2s1		> 100	> 100	> 100	> 100	> 100	> 100	> 100	> 100	
CC(=O)OCCOCNC(=S)N/N=C/c1cc([N+](=O)[O-])ccc1O	> 100	> 100	> 100	> 100	> 100	> 100	> 100	> 100	> 100	> 100
COC1(C)C(=O)N2C1N(C(=O)OC(C)(C)C)CC2(C)C (centres undefined)	> 100	> 100		> 100	> 100	> 100	> 100	> 100	> 100	
CC(=O)OCC1OC(OC2C(COC(C)=O)OC(Sc3ccccc3C)C(OC(C)=O)C2OC(C)=O)C(OC(C)=O)C(OC(C)=O)C1OC(C)=O (centres undefined)	> 100	> 100		> 100	> 100	> 100	> 100	> 100	> 100	
COc1ccc(C2ON(c3ccccc3)CC=C2C)cc1 (centres undefined)		> 100	> 100	> 100	> 100	> 100	> 100		> 100	> 100
CN/C=C(\C(=O)c1ccc(OC)c(OC)c1)c1ccc(OC)cc1	46.8	30.2	33.2		34.3	31.7		20.9	21.7	32.5
O=c1[nH]c(=O)n(C2CC(O)C(CO)O2)cc1C(F)(C(F)(F)F)C(F)(F)F (centres undefined)	> 100	> 100	> 100	> 100	> 100	> 100	> 100	> 100	> 100	
COc1cc2oc(-c3ccccc3)cc(=O)c2c(O)c1C	> 100	> 100		> 100	> 100	> 100	> 100		> 100	
CC(=O)Nc1ccc(-c2nnc(SCC(=O)Nc3cccc(Cl)c3)o2)cc1	6.07	24.8		> 100	> 100	28.3	31.4	25.5	62.4	
CCOc1cn(C2OC(CO)C(O)C2O)c(=O)[nH]c1=O (centres undefined)	> 100	> 100		> 100	> 100	> 100	> 100	> 100	> 100	
COc1ccc(C(=O)c2c3cc(OC)c(OC)c(OC)c3cc[n+]2C)cc1	75.7	> 100	33.3	> 100	> 100	> 100	> 100	80.6		> 100
COc1cc(CC2c3cc(OC)c(OC)cc3CCN2C)ccc1O (centres undefined)		> 100	> 100	> 100		> 100	> 100	> 100		
COc1cccc(/C=C/C(=O)c2sc(C(N)=S)nc2C)c1O	> 100	> 50.1	> 100	> 100	> 100	> 68.5	> 100	> 100	> 91.3	> 100
CC(c1ccc2c(c1)CCC1C2CC2OC23CC=CC(=O)[C@]13C)C1C[C@]2(C)O[C@]2(C)[C@H](O)O1 (some centres undefined)	4.97	> 100	> 100		> 100		> 100		> 100	
COc1ccc2c(=O)cc(-c3ccc(OC)c(OC)c3OC)oc2c1	> 100	> 100	> 100		> 100	> 100	77.3			> 100
CCOC(=O)C1=C(C)NC2=C(C(=O)N(c3ccccc3)C2c2ccccc2)C1c1ccccc1 (centres undefined)	32.4	30.3	37.5	45.3	32.3	34.5		37.7		32.9
